Assay results taken from patent US11602538B2, “Prophylaxis and treatment of cognitive dysfunction and decline” (The Florey Institute of Neuroscience and Mental Health, priority 2017, dated 2023).
Entries after “also recorded” stand apart in the source; their conditions may differ.

What was measured:
Assay type in all cases: in vivo, mouse
[1] = system: mice receiving a controlled cortical impact traumatic brain injury (TBI); assay: Morris water maze after controlled cortical impact TBI
Procedure: Trehalose (Sigma) has a generous safety profile in rodents and humans has been posted as “Generally Regarded as Safe” (GRAS) for human consumption by the U.S. Federal Drug Administration (FDA) in October 2000, is used as a food additive, and is also an excipient in many pharmaceuticals, making trehalose a safe, natural and pharmaceutically accepted product. In this study, it was supplied as a 2% w/v in standard suspension vehicle (SSV) solution via oral gavage at a dose of 0.1 ml to 10 g body weight. SSV solution was purchased from Sigma and contains 0.9% sodium chloride (NaCl), 0.5% Sodium carboxymethylcellulose (Na-CMC), 0.5% Benzyl alcohol, 0.4%, Tween 80 (polyoxyethylenesorbitan monooleate).
(§1) Surgical procedures and controlled cortical impact (CCI) have been previously described (see Portbury et al., 2015, Metallomics. doi:10.1039/c5mt00234f). Briefly, 3 month-old male C57B16 mice were anesthetized via intraperitoneal injection of 100 mg/kg ketamine and 10 mg/kg xylazine. A 10 mm mid-line incision was made over the skull, and the skin and fascia were reflected to make a 4 mm craniotomy on the central aspect of the right parietal bone using a motorized drill. Upon animal positioning in a stereotaxic frame a CCI injury was subsequently delivered (3 m/s velocity with a 1.5 mm penetration depth).
(§2) Three groups of animals were subjected to TBI as separate experiments. The first group of animals were treated daily with 2% trehalose in SSV solution at 0.1 ml per 10 g body weight via oral gavage for a period of 31 days or SSV solution following the TBI. […] The second groups of animals underwent an identical dosing procedure but were treated with either SSV or maltose as a disaccharide control for trehalose. […] A further group of animals was pre-treated with trehalose prior to TBI. These pre-treated mice received a daily treatment of 2% trehalose in SSV solution at 0.1 ml per 10 g body weight via oral gavage for 7 days prior to TBI. Following TBI, these animals received SSV solution only for the remaining duration of the experiment.
(§3) The Morris Water Maze (MWM) was used to assess the effect of trehalose on spatial learning and memory function following TBI. The pre-training acclimation day of the water maze was performed on day 23 of dosing, followed by six days of place discrimination training of four 90 second trials per day, conducted on days 24-29 of dosing. The probe trial was performed 24 hours after training on dosing day 30 to assess retention of the task. Data was analysed using the Ethovision automated tracking system. Animals were culled on day 31. Both experimental groups adhered to the same time lines of behavioral assessment. The open field assessment was performed on day 19 of dosing and the Y-maze assessment was performed on day 21 of dosing.
(§4) For LA-ICPMS samples, statistical analysis was carried out in Prism 7 (Graph-Pad) software. Analysis was carried out with a two-tailed t test with the level of significance set at p=0.05. For multiple comparisons two-way ANOVA was used to identify significant differences between ipsilateral and contralateral ROI's. For western blot analysis, images were produced using Image Studio Lite (version 4.0.21, LI-COR Biosciences) and subsequent statistical analysis was carried out in Prism 7 (Graph-Pad). All behavioral analysis was performed using Prism 7 (Graph-Pad).

synaptophysin [2] = assay: Synaptophysin expression in Tg2576 brain
Procedure: (§5) For the behaviorally assessed animals the cortex and hippocampus of both ipsilateral and contralateral hemispheres were homogenized in 15 volumes of ice-cold PBS containing Complete Protease Inhibitor Cocktail tablets (Roche Applied Science, Indianapolis, Ind., USA) and subsequently centrifuged (100,000×g) for 30 minutes at 4° C. Supernatant was removed to yield the soluble fraction (S1). Remaining pellet underwent further extraction via 30 minutes of vigorous agitation in above mentioned homogenization buffer containing 2% (vol/vol) Triton X100. Insoluble material was pelleted via centrifugation (20,000×g) for 20 minutes, and supernatant was retained as the membrane fraction (P1). Protein concentrations were determined using Pierce BCA protein assay (Pierce Biotechnology, Rockford, Ill., USA) to ensure equal loading of 10 μg protein samples on gel. Samples were prepared for PAGE by the addition of 4× protein sample loading buffer (LICOR, Lincoln, Nebr., USA) and 10× NuPAGE sample reducing agent (to a final 1× concentration). Samples were heated to 70° C. for 10 min, loaded onto Bolt 4-12% Bis-Tris Plus gels (Invitrogen-Life Technologies, Grand Island, N.Y., USA) along with Licor One-Color protein molecular weight markers (LICOR, Lincoln, Nebr., USA) and run at 125 V for 60 min in appropriately diluted Bolt MES SDS 20× running buffer (Invitrogen-Life Technologies, Grand Island, N.Y., USA). […] Blots were rinsed in TBST and incubated with appropriate secondary antibody (1 h, RT), followed by further rinsing and imaged using a LI-COR Odyssey Imaging system (LI-COR Biosciences, Lincoln Nebr., USA), and analysed with Image Studio Lite software (LI-COR Biosciences, Lincoln Nebr., USA). […]
Transgenic Tg2576 mice were treated daily with 2% trehalose (0.1 ml/10 g body weight) in SSV (Sigma)(n=15, average age 16.2±3 months of age) via oral gavage or SSV (saline vehicle suspension) (n=12, 16±3 months of age). […] Mice were culled on day 31, and DCX and synaptophysin expression were assessed.

synaptophysin [3] = assay: Western blot of brain tissue after TBI: synaptophysin
Procedure: as §2
(§6) For the behaviorally assessed animals the cortex and hippocampus of both ipsilateral and contralateral hemispheres were homogenized in 15 volumes of ice-cold PBS containing Complete Protease Inhibitor Cocktail tablets (Roche Applied Science, Indianapolis, Ind., USA) and subsequently centrifuged (100,000×g) for 30 minutes at 4° C. Supernatant was removed to yield the soluble fraction (S1). Remaining pellet underwent further extraction via 30 minutes of vigorous agitation in above mentioned homogenization buffer containing 2% (vol/vol) Triton X100. Insoluble material was pelleted via centrifugation (20,000×g) for 20 minutes, and supernatant was retained as the membrane fraction (P1). Protein concentrations were determined using Pierce BCA protein assay (Pierce Biotechnology, Rockford, Ill., USA) to ensure equal loading of 10 μg protein samples on gel. Samples were prepared for PAGE by the addition of 4× protein sample loading buffer (LICOR, Lincoln, Nebr., USA) and 10× NuPAGE sample reducing agent (to a final 1× concentration). Samples were heated to 70° C. for 10 min, loaded onto Bolt 4-12% Bis-Tris Plus gels (Invitrogen-Life Technologies, Grand Island, N.Y., USA) along with Licor One-Color protein molecular weight markers (LICOR, Lincoln, Nebr., USA) and run at 125 V for 60 min in appropriately diluted Bolt MES SDS 20× running buffer (Invitrogen-Life Technologies, Grand Island, N.Y., USA). Gels were transferred to Immobilon—PF, PVDF membrane (Millipore) using the Invitrogen Bolt wet-gel Transfer Device (Invitrogen-Life Technologies, Grand Island, N.Y., USA) at 15 V for 60 min in appropriately diluted 20× Bolt transfer buffer (Invitrogen-Life Technologies, Grand Island, N.Y., USA). […] Blots were rinsed in TBST and incubated with appropriate secondary antibody (1 h, RT), followed by further rinsing and imaged using a LI-COR Odyssey Imaging system (LI-COR Biosciences, Lincoln Nebr., USA), and analysed with Image Studio Lite software (LI-COR Biosciences, Lincoln Nebr., USA). […]

[4] = system: brain derived neurotrophic factor (BDNF); assay: Western blot of brain tissue after TBI: BDNF
Procedure: as §2
as §5, with “concentration).” for “concentration). Samples were heated to 70° C. for 10 min, loaded onto Bolt 4-12% Bis-Tris Plus gels (Invitrogen-Life Technologies, Grand Island, N.Y., USA) along with Licor One-Color protein molecular weight markers (LICOR, Lincoln, Nebr., USA) and run at 125 V for 60 min in appropriately diluted Bolt MES SDS 20× running buffer (Invitrogen-Life Technologies, Grand Island, N.Y., USA).”

Pro-BDNF = assay: Western blot of brain tissue after TBI: Pro-BDNF
Procedure: as §2
as §5, with “concentration).” for “concentration). Samples were heated to 70° C. for 10 min, loaded onto Bolt 4-12% Bis-Tris Plus gels (Invitrogen-Life Technologies, Grand Island, N.Y., USA) along with Licor One-Color protein molecular weight markers (LICOR, Lincoln, Nebr., USA) and run at 125 V for 60 min in appropriately diluted Bolt MES SDS 20× running buffer (Invitrogen-Life Technologies, Grand Island, N.Y., USA).”

doublecortin (DCX) [5] = assay: Doublecortin expression in Tg2576 brain; details: Tg2576 hippocampus; vs SSV littermates
Procedure: as §5, with “concentration).” for “concentration). Samples were heated to 70° C. for 10 min, loaded onto Bolt 4-12% Bis-Tris Plus gels (Invitrogen-Life Technologies, Grand Island, N.Y., USA) along with Licor One-Color protein molecular weight markers (LICOR, Lincoln, Nebr., USA) and run at 125 V for 60 min in appropriately diluted Bolt MES SDS 20× running buffer (Invitrogen-Life Technologies, Grand Island, N.Y., USA).”

[6] = system: mice receiving a controlled cortical impact traumatic brain injury (TBI); assay: Y-maze assessment after TBI
Procedure: as §1, §2, §3, §4

LC3 = assay: Autophagy by LC3 western blot after TBI; details: between trehalose, SSV and maltose treated groups after TBI
Procedure: as §2
For the behaviorally assessed animals the cortex and hippocampus of both ipsilateral and contralateral hemispheres were homogenized in 15 volumes of ice-cold PBS containing Complete Protease Inhibitor Cocktail tablets (Roche Applied Science, Indianapolis, Ind., USA) and subsequently centrifuged (100,000×g) for 30 minutes at 4° C. Supernatant was removed to yield the soluble fraction (S1). […] Protein concentrations were determined using Pierce BCA protein assay (Pierce Biotechnology, Rockford, Ill., USA) to ensure equal loading of 10 μg protein samples on gel. […]

[7] = system: mice receiving a controlled cortical impact traumatic brain injury (TBI); assay: Volumetric analysis of cortical tissue loss after TBI; details: treated after TBI; vs controls
Procedure: as §1, §2

[8] = system: mice receiving a controlled cortical impact traumatic brain injury (TBI); assay: Open field assessment after TBI; details: treated post-TBI, dosing day 19, vs SSV control
Procedure: as §1, §2, §3, §4

doublecortin (DCX) [9] = assay: Western blot of brain tissue after TBI: doublecortin
Procedure: as §2, §6

Tg2576 transgenic mice = assay: Morris water maze in Tg2576 Alzheimer's disease model
Procedure: Transgenic Tg2576 mice were treated daily with 2% trehalose (0.1 ml/10 g body weight) in SSV (Sigma)(n=15, average age 16.2±3 months of age) via oral gavage or SSV (saline vehicle suspension) (n=12, 16±3 months of age). Mice were dosed for a period of 31 days, with the Morris water maze commencing on day 23 of dosing. Mice were culled on day 31, and DCX and synaptophysin expression were assessed.

[10] = contralateral cortex, vs SSV and maltose
[11] = contralateral cortex, vs SSV and maltose, listed as Trehalose
[12] = contralateral hippocampus or ipsilateral cortex and hippocampus
[13] = pre-treated 7 days before TBI, vs SSV littermates
[14] = treated post-TBI, dosing day 21, vs SSV
[15] = treated post-TBI, dosing day 21, vs SSV, listed as Trehalose

OC[C@H]1O[C@H](O[C@H]2O[C@H](CO)[C@@H](O)[C@H](O)[C@H]2O)[C@H](O)[C@@H](O)[C@@H]1O [trehalose]
learning component, Morris water maze ([1]; pre-treated 7 days before TBI with 2% oral gavage, SSV only after TBI, vs SSV controls): outperformed SSV controls in the learning (FIG. 1a) component of the water maze trial, although not significantly | recall component, Morris water maze ([1]; pre-treated 7 days before TBI with 2% oral gavage, SSV only after TBI, vs post-treated mice and SSV controls): significantly outperform trehalose post-treated mice and SSV controls | escape latency / acquisition of the task (learning component), Morris water maze ([1]; treated post-TBI daily by oral gavage, 2% in SSV, 0.1 ml per 10 g, vs SSV controls, training on dosing days 24-29): overall significant performance improvement | probe day 24-hour task retention (recall component), Morris water maze ([1]; treated post-TBI daily by oral gavage, 2% in SSV, vs SSV controls, dosing day 30): overall significant performance improvement; also recorded: significant improvement in memory | synaptophysin protein expression (synaptophysin [2]; Tg2576 cortex, trehalose vs SSV): no significant difference | synaptophysin protein expression (synaptophysin [2]; Tg2576 hippocampus, vs SSV littermates): increased | synaptophysin protein expression (synaptophysin [2]; Tg2576 hippocampus, vs SSV littermates, listed as Trehalose): significant increase | synaptophysin protein expression (synaptophysin [3]; contralateral cortex, 31 days post-TBI, vs SSV and maltose controls): significantly elevated expression | synaptophysin protein expression (synaptophysin [3]; contralateral cortex, 31 days post-TBI, vs SSV and maltose controls, listed as Trehalose): significantly increased | synaptophysin protein expression (synaptophysin [3]; contralateral hippocampus, ipsilateral cortex and hippocampus): no significant elevation | synaptophysin protein expression (synaptophysin [3]; ipsilateral hippocampus, vs control groups): non-significant elevation | BDNF protein [4, 10]: significant increase | BDNF protein [4, 11]: significantly increased | BDNF protein [4, 12]: not significantly elevated | pro-BDNF protein (Pro-BDNF; [10]): significant increase | pro-BDNF protein (Pro-BDNF; [11]): significantly increased | pro-BDNF protein (Pro-BDNF; [12]): not significantly elevated | DCX protein expression (doublecortin (DCX) [5]): increased; also recorded: significant (p<0.0401) increase | five-minute frequency, Y-maze [6, 13]: performed significantly better | one-minute duration, Y-maze [6, 13]: performed significantly better | one-minute frequency, Y-maze [6, 13]: performed significantly better | five-minute duration, Y-maze ([6]; pre-treated 7 days before TBI, vs post-treatment and SSV mice): significantly outperformed both the trehalose post-treatment and SSV treated mice | five-minute frequency of visits into the novel arm, Y-maze [6, 14]: significantly enhanced | one-minute duration of time in the novel arm, Y-maze [6, 14]: significantly greater duration of time in the novel arm; also recorded: significant overall duration of time in the novel arm | one-minute frequency of visits into the novel arm, Y-maze [6, 14]: significantly enhanced | five-minute frequency of visits into the novel arm, Y-maze [6, 15]: significant overall frequency of visitation preference for the novel arm | one-minute frequency of visits into the novel arm, Y-maze [6, 15]: significant overall frequency of visitation preference for the novel arm | enhancement in autophagy (LC3) (LC3): not detectable | cortical tissue loss [7]: no difference | ambulatory time, open field [8]: significant increase | ambulatory velocity, open field [8]: no significant difference | total ambulatory distance, open field [8]: significant increase | vertical counts, open field [8]: significant increase | ambulatory velocity, open field ([8]; listed as Trehalose): without a significant increase | DCX protein (doublecortin (DCX) [9]; contralateral cortex, vs SSV and maltose controls): significant increase | DCX protein (doublecortin (DCX) [9]; contralateral cortex, vs SSV and maltose controls, listed as Trehalose): significantly increases | DCX protein (doublecortin (DCX) [9]; contralateral hippocampus or ipsilateral cortex and hippocampus, vs control groups): absence of elevated DCX | DCX expression (doublecortin (DCX) [9]; ipsilateral cortex and hippocampus, vs SSV and maltose controls): significantly decreased | cognitive improvement in the Morris water maze (Tg2576 transgenic mice; 2% trehalose daily oral gavage for 31 days): significant cognitive improvement | escape latency, Morris water maze (Tg2576 transgenic mice; 2% trehalose daily oral gavage for 31 days, vs Tg2576 SSV littermates): significant decrease | time spent in the relevant quadrant, Morris water maze (Tg2576 transgenic mice; 2% trehalose daily oral gavage, vs SSV littermates): significant (p<0.0003) increase
